Oligonucleotides are written 5' to 3', each unit as a sugar letter and its base; * is a phosphorothioate linkage, no mark a phosphodiester; rarer units and linkages stand in square brackets, end groups in braces. Plain capitals give the bases only. d = 2'-deoxy (DNA); r = 2'-OH (RNA)
molecular target: UBE2S; assay: reporter assay of Huesken 2005; conditions: siRNA
Note: test concentration or dose not given here.

| Substance | normalised inhibition (eCFP-eYFP dual reporter) [%] |
| --- | --- |
| sense rUrCrCrArCrCrCrUrArArCrCrCrCrGrArGrUrCdTdT / antisense rGrArCrUrCrGrGrGrGrUrUrArGrGrGrUrGrGrAdTdC | 39.4 |
| sense rUrCrCrCrArArCrGrArGrGrArGrGrArCrCrUrCdTdT / antisense rGrArGrGrUrCrCrUrCrCrUrCrGrUrUrGrGrGrAdAdA | 35.7 |
| sense rUrCrCrCrCrArCrCrCrArArGrGrGrCrUrArCrUdTdT / antisense rArGrUrArGrCrCrCrUrUrGrGrGrUrGrGrGrGrAdGdG | 48.9 |
| sense rUrCrUrGrUrUrCrCrGrCrArUrGrArArArCrUrCdTdT / antisense rGrArGrUrUrUrCrArUrGrCrGrGrArArCrArGrAdCdC | 42.3 |
| sense rUrGrArArArCrUrCrCrUrGrCrUrGrGrGrGrArAdTdT / antisense rUrUrCrCrCrCrArGrCrArGrGrArGrUrUrUrCrAdTdG | 54 |
| sense rUrGrCrGrUrCrArArCrGrUrGrCrUrCrArArGrAdTdT / antisense rUrCrUrUrGrArGrCrArCrGrUrUrGrArCrGrCrAdGdA | 74.5 |
| sense rUrGrCrUrCrUrUrGrGrArGrArArCrUrArCrGrAdTdT / antisense rUrCrGrUrArGrUrUrCrUrCrCrArArGrArGrCrAdGdG | 77.8 |
| sense rUrGrGrArGrGrUrCrUrGrUrUrCrCrGrCrArUrGdTdT / antisense rCrArUrGrCrGrGrArArCrArGrArCrCrUrCrCrAdGdC | 58.5 |
| sense rUrGrGrCrGrArGrArUrCrUrGrCrGrUrCrArArCdTdT / antisense rGrUrUrGrArCrGrCrArGrArUrCrUrCrGrCrCrAdTdT | 85.6 |
| sense rUrUrCrCrCrArArCrGrArGrGrArGrGrArCrCrUdTdT / antisense rArGrGrUrCrCrUrCrCrUrCrGrUrUrGrGrGrArAdAdG | 41.6 |

molecular target: UBE2W; assay: reporter assay of Huesken 2005; conditions: siRNA

| Substance | normalised inhibition (eCFP-eYFP dual reporter) [%] |
| --- | --- |
| sense rArArArArUrArUrUrCrCrUrGrUrUrCrArUrCrCdTdT / antisense rGrGrArUrGrArArCrArGrGrArArUrArUrUrUrUdCdA | 53.5 |
| sense rArArArArUrUrCrArArUrUrArCrArCrArGrUrGdTdT / antisense rCrArCrUrGrUrGrUrArArUrUrGrArArUrUrUrUdGdA | 76.8 |
| sense rArArCrUrUrCrUrArUrUrUrArArArUrUrUrArGdTdT / antisense rCrUrArArArUrUrUrArArArUrArGrArArGrUrUdGdA | 96.1 |
| sense rArArGrArGrArCrGrArCrCrArCrCrGrGrArUrAdTdT / antisense rUrArUrCrCrGrGrUrGrGrUrCrGrUrCrUrCrUrUdTdT | 82.7 |
| sense rArArGrArGrUrGrUrUrCrArArArArUrUrCrArAdTdT / antisense rUrUrGrArArUrUrUrUrGrArArCrArCrUrCrUrUdCdT | 114 |
| sense rArArUrCrArGrUrUrUrGrUrCrUrUrArGrCrArUdTdT / antisense rArUrGrCrUrArArGrArCrArArArCrUrGrArUrUdGdG | 104 |
| sense rArArUrUrArCrArCrArGrUrGrGrArUrUrGrUrAdTdT / antisense rUrArCrArArUrCrCrArCrUrGrUrGrUrArArUrUdGdA | 112 |
| sense rArArUrUrUrCrArArCrUrUrCrUrArUrUrUrArAdTdT / antisense rUrUrArArArUrArGrArArGrUrUrGrArArArUrUdTdT | 97.5 |
| sense rArCrArCrArGrUrGrGrArUrUrGrUrArGrArCrAdTdT / antisense rUrGrUrCrUrArCrArArUrCrCrArCrUrGrUrGrUdAdA | 99.3 |
| sense rArCrArGrUrGrGrArUrUrGrUrArGrArCrArUrGdTdT / antisense rCrArUrGrUrCrUrArCrArArUrCrCrArCrUrGrUdGdT | 110 |
| sense rArCrCrArCrCrGrGrArUrArArUrUrCrUrUrUrUdTdT / antisense rArArArArGrArArUrUrArUrCrCrGrGrUrGrGrUdCdG | 96.7 |
| sense rArCrUrGrGrUrCrCrCrCrArGrCrGrCrUrCrUrCdTdT / antisense rGrArGrArGrCrGrCrUrGrGrGrGrArCrCrArGrUdCdT | 93.1 |
| sense rArGrArArGrArCrUrGrGrUrCrCrCrCrArGrCrGdTdT / antisense rCrGrCrUrGrGrGrGrArCrCrArGrUrCrUrUrCrUdGdT | 88.4 |
| sense rArGrArArUrCrCrArArArGrArArArArCrArArAdTdT / antisense rUrUrUrGrUrUrUrUrCrUrUrUrGrGrArUrUrCrUdTdG | 106 |
| sense rArGrArGrUrGrUrUrCrArArArArUrUrCrArArUdTdT / antisense rArUrUrGrArArUrUrUrUrGrArArCrArCrUrCrUdTdC | 109 |
| sense rArGrCrArUrUrArUrUrArGrCrArUrGrCrUrUrUdTdT / antisense rArArArGrCrArUrGrCrUrArArUrArArUrGrCrUdAdA | 84.8 |
| sense rArGrGrUrGrCrArCrCrArGrGrUrArCrCrUrUrAdTdT / antisense rUrArArGrGrUrArCrCrUrGrGrUrGrCrArCrCrUdTdC | 93.2 |
| sense rArGrUrArGrUrCrGrArUrArUrCrCrUrUrUrUrGdTdT / antisense rCrArArArArGrGrArUrArUrCrGrArCrUrArCrUdAdA | 124 |
| sense rArGrUrCrGrArUrArUrCrCrUrUrUrUrGrArCrUdTdT / antisense rArGrUrCrArArArArGrGrArUrArUrCrGrArCrUdAdC | 81.4 |
| sense rArUrCrArGrUrUrUrGrUrCrUrUrArGrCrArUrUdTdT / antisense rArArUrGrCrUrArArGrArCrArArArCrUrGrArUdTdG | 107 |
| sense rArUrCrCrUrCrArUrGrUrUrUrArUrArGrCrArAdTdT / antisense rUrUrGrCrUrArUrArArArCrArUrGrArGrGrArUdGdA | 104 |

| Substance | normalised inhibition (eCFP-eYFP dual reporter) [%] |
| --- | --- |
| sense rArUrCrUrGrUrUrUrArUrCrCrArUrUrCrUrArAdTdT / antisense rUrUrArGrArArUrGrGrArUrArArArCrArGrArUdAdT | 96.6 |
| sense rArUrGrArCrCrUrUrArArArUrGrArGrArArGrAdTdT / antisense rUrCrUrUrCrUrCrArUrUrUrArArGrGrUrCrArUdTdC | 68.9 |
| sense rArUrGrGrArArGrGrUrGrCrArCrCrArGrGrUrAdTdT / antisense rUrArCrCrUrGrGrUrGrCrArCrCrUrUrCrCrArUdGdT | 86.1 |
| sense rArUrGrUrGrCrGrArArCrArUrGrUrArArCrArAdTdT / antisense rUrUrGrUrUrArCrArUrGrUrUrCrGrCrArCrArUdAdA | 88.7 |
| sense rArUrGrUrUrUrArUrArGrCrArArUrGrGrUrCrAdTdT / antisense rUrGrArCrCrArUrUrGrCrUrArUrArArArCrArUdGdA | 96.2 |
| sense rArUrUrArGrCrArUrGrCrUrUrUrCrCrArGrCrUdTdT / antisense rArGrCrUrGrGrArArArGrCrArUrGrCrUrArArUdAdA | 67.5 |
| sense rCrArArGrGrArArArArGrArGrArCrGrArCrCrAdTdT / antisense rUrGrGrUrCrGrUrCrUrCrUrUrUrUrCrCrUrUrGdCdA | 110 |
| sense rCrArCrArGrUrGrGrArUrUrGrUrArGrArCrArUdTdT / antisense rArUrGrUrCrUrArCrArArUrCrCrArCrUrGrUrGdTdA | 115 |
| sense rCrArGrUrCrCrArArUrCrArGrUrUrUrGrUrCrUdTdT / antisense rArGrArCrArArArCrUrGrArUrUrGrGrArCrUrGdAdG | 122 |
| sense rCrArUrUrArUrUrArGrCrArUrGrCrUrUrUrCrCdTdT / antisense rGrGrArArArGrCrArUrGrCrUrArArUrArArUrGdCdT | 93.2 |
| sense rCrCrArArArGrArArArArCrArArArArUrGrGrUdTdT / antisense rArCrCrArUrUrUrUrGrUrUrUrUrCrUrUrUrGrGdAdT | 101 |
| sense rCrCrUrCrCrUrGrGrArArUrGrArCrCrUrUrArAdTdT / antisense rUrUrArArGrGrUrCrArUrUrCrCrArGrGrArGrGdTdG | 99.3 |
| sense rCrGrArUrArUrCrCrUrUrUrUrGrArCrUrCrUrCdTdT / antisense rGrArGrArGrUrCrArArArArGrGrArUrArUrCrGdAdC | 85.7 |
| sense rCrUrArUrUrUrArArArUrUrUrArGrUrArGrUrCdTdT / antisense rGrArCrUrArCrUrArArArUrUrUrArArArUrArGdAdA | 83.5 |
| sense rCrUrCrCrUrGrGrArArUrGrArCrCrUrUrArArAdTdT / antisense rUrUrUrArArGrGrUrCrArUrUrCrCrArGrGrArGdGdT | 100 |
| sense rCrUrGrGrUrGrArArArArUrArUrUrCrCrUrGrUdTdT / antisense rArCrArGrGrArArUrArUrUrUrUrCrArCrCrArGdTdA | 108 |
| sense rCrUrGrUrUrCrArUrCrCrUrCrArUrGrUrUrUrAdTdT / antisense rUrArArArCrArUrGrArGrGrArUrGrArArCrArGdGdA | 113 |
| sense rCrUrUrUrCrCrArGrCrUrGrCrArArGrGrArArAdTdT / antisense rUrUrUrCrCrUrUrGrCrArGrCrUrGrGrArArArGdCdA | 103 |
| sense rGrArArGrArCrUrGrGrUrCrCrCrCrArGrCrGrCdTdT / antisense rGrCrGrCrUrGrGrGrGrArCrCrArGrUrCrUrUrCdTdG | 80.5 |
| sense rGrArCrArUrGrGrArArGrGrUrGrCrArCrCrArGdTdT / antisense rCrUrGrGrUrGrCrArCrCrUrUrCrCrArUrGrUrCdTdA | 94.9 |
| sense rGrArCrCrArCrCrGrGrArUrArArUrUrCrUrUrUdTdT / antisense rArArArGrArArUrUrArUrCrCrGrGrUrGrGrUrCdGdT | 96.4 |

Source: the OligoGym collection
